Reference: patent publication US9944597B2, “Polysubstituted pyrroles having microtubule-disrupting, cytotoxic and antitumor activities and methods of use thereof” (THE BOARD OF REGENTS OF THE UNIVERSITY OF TEXAS SYSTEM, priority 2013, dated 2018)
Read-outs that look alike come from different tables or passages of the source.

What was measured:
HeLa WT-β-III cells = assay: Antiproliferative SRB assay, βIII-tubulin expressing HeLa; format: cell-based, human; conditions: for IC50: Table 49, βIII tubulin expressing line, 48 hr, SRB assay; for Rr (β-III): relative resistance: IC50 of expressing line divided by IC50 of parental HeLa
Procedure: (§1) Cell Culture. Various representative cancer and other cell lines were sourced and grown as described previously [Mooberry, S. L., et al., Mol. Pharm. 72, 132-140 (2007)]. MDA-MB-435 (human melanoma cancer cells), and MDA-MB-231 (human breast cancer cells) were grown in IMEM Richter's Medium (Life Technologies, Grand Island, N.Y.) with 10% FBS (Hyclone, Logan, Utah) and 25 μg/mL gentamicin sulfate (Life Technologies). A-10 (embryonic rat vascular smooth muscle cells) and HeLa (human cervical cancer cells), SK-OV-3 (human ovarian cancer cells) and SK-OV-3-MDR-1-M6/6 (a clone of the SK-OV-3 that was generated from SK-OV-3 cells by adenovirus-mediated expression of MDR1) were grown in Basal Medium Eagle (BME, Sigma-Aldrich, St. Louis, Mo.) containing Earle's salts, 50 μg/ml gentamicin sulfate, and 10% FBS. HeLa cells (a single-cell clone derived from transduction of HeLa cells with wild-type (WT) βIII-tubulin) were grown in Dulbecco's Modified Eagle's Medium (DMEM, Life Technologies) containing 50 μg/mL gentamicin sulfate and 10% FBS.
(§2) Antiproliferative Effects. The pyrrole compounds were evaluated for their antiproliferative effects in a panel of cancer cell lines. Cells were plated into 96-well plates at predetermined densities and allowed to attach and proliferate for 24 hr, and then the compounds were added. After a 48 hr exposure to the compounds, the cells were fixed with trichloroacetic acid and cellular protein was determined using the sulforhodamine B (SRB) assay (Skehan et al., J. Natl. Cancer Inst. 82, 1107-12, (1990); Boyd and Paull Drug Devel. Res. 34, 91-109, (1995)). Concentration response curves were constructed, and the IC50 (the concentration required to inhibit proliferation by 50%) values were determined from the linear portions of the log concentration-response curves as described previously [Tinley, T. L., et al., Cancer Res. 63, 3211-3220, (2003)] as shown in Table 48.
(§3) First, drug resistance mediated by the expression of βIII tubulin was evaluated in an isogenic HeLa cell line pair. Expression of the βIII tubulin isotype is associated with clinical drug resistance to the taxanes in ovarian cancer, non small-cell lung cancer and breast cancer [Galmarini, C. M., et al., Clin. Cancer Res. 14, 4511-4516 (2008)]. Secondly, drug resistance mediated by the expression of the drug efflux pump protein, Pgp, was evaluated in the isogenic SK-OV-3 cell line pair. The expression of Pgp can lead to lower intracellular drug concentrations and diminished cytotoxic effects both in vitro and in vivo. All tubulin-binding anticancer drugs used currently in the clinic, except cabazitaxel, are substrates for Pgp, thus limiting their utility in drug resistant tumors [Penson, R. T., et al., Gynecol. Oncol. 93, 98-106 (2004)]. Differences in sensitivity between the parent and transformed cell line, indicative of resistance, was determined by calculating relative resistance (Rr) values in the two pairs of isogenic cell lines (dividing the IC50 of the expressing cell line by the IC50 of the parental cell line).

[1] = biological target: T1, purified porcine brain tubulin (Sus scrofa, UniProt P02554); assay: Inhibition of polymerization of purified tubulin (absorbance at 340 nm); format: biochemical
T1 construct: of Purified Porcine Brain Tubulin; from tissue; host or cells: porcine brain

[2] = test system: SK-OV-3 (human ovarian cancer cells); assay: Antiproliferative SRB assay, SK-OV-3; format: cell-based
Procedure: as §1, §2
as §3, with “The expression of Pgp can lead to lower intracellular drug concentrations and diminished cytotoxic effects both in vitro and in vivo.” left out

SK-OV-3-MDR-1-6/6 cells = assay: Antiproliferative SRB assay, Pgp expressing SK-OV-3; format: cell-based, human; conditions: for IC50: Table 49, Pgp expressing line, 48 hr, SRB assay; for Rr (Pgp): relative resistance: IC50 of expressing line divided by IC50 of parental SK-OV-3
Procedure: as §1, §2
as §3, with “The expression of Pgp can lead to lower intracellular drug concentrations and diminished cytotoxic effects both in vitro and in vivo.” left out

[3] = test system: HeLa (human cervical cancer cells); assay: Antiproliferative SRB assay, HeLa; format: cell-based
Procedure: as §1, §2, §3

A-10 cells = assay: Cellular microtubule loss by indirect immunofluorescence; format: cell-based, rat; conditions: read-out: EC50 Values (nM) for Microtubule Loss in A-10 cells
Procedure: The effects of representative compounds on cellular microtubules were evaluated in A-10 (embryonic rat vascular smooth muscle cell line) cells using indirect immunofluorescence techniques as previously described (Tinley et al., Cancer Res. 63, 3211-20 (2003)). Cells were visualized using a Nikon Eclipse 80i fluorescence microscope and NIS Elements software. Changes in both interphase and mitotic microtubules were noted and photographed. The EC50 values, the concentration that causes approximately 50% loss of interphase microtubules was determined by evaluating a range of concentrations of each compound and the percent cellular microtubule depolymerization that was observed visually at each concentration was noted.
Microtubules were visualized by indirect immunofluorescence using a β-tubulin antibody, and the DNA was visualized with DAPI. A representative concentration response curve for NT-7-16 is also shown in FIG. 1 that was used to calculate its corresponding EC50 for microtubule loss. Concentration response curves for microtubule loss were plotted using data from at least three experiments for each compound and the corresponding EC50 values for microtubule loss are presented in Table 50.

[4] = test system: MDA-MB-435 (human melanoma cancer cells); assay: Antiproliferative SRB assay, MDA-MB-435; format: cell-based; conditions: read-out: MDA-MB-435 Anti-Proliferative Activity, IC50
Procedure: as §1, §2

[5] = Homo sapiens, SK-OV-3, Table 48, 48 hr exposure, read-out: SK-OV-3 Anti-Proliferative Activity, IC50
[6] = Homo sapiens, SK-OV-3, Table 49, parental line, 48 hr, read-out: SK-OV-3 IC50
[7] = Homo sapiens, HeLa, Table 48, 48 hr exposure, read-out: HeLa Anti-Proliferative Activity, IC50
[8] = Homo sapiens, HeLa, Table 49, parental line, 48 hr, read-out: HeLa IC50
[9] = Rattus norvegicus, A10, Table 50, concentration causing approximately 50% loss of interphase microtubules
[10] = Homo sapiens, MDA-MB-435, Table 48, 48 hr exposure, SRB assay
[11] = Homo sapiens, MDA-MB-435, Table 52

T1 sequence (P02554 whole entry): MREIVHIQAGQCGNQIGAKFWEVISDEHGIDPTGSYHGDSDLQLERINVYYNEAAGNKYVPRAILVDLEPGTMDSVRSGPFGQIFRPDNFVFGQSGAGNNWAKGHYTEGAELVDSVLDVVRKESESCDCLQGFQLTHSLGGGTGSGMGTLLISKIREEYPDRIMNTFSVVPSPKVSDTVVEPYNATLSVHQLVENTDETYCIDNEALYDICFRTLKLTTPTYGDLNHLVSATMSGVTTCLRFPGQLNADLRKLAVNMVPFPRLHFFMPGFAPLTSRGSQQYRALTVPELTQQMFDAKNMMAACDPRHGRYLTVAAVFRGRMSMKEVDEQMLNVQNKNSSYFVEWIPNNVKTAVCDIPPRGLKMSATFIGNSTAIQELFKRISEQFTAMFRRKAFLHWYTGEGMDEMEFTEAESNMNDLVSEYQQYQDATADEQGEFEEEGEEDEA
T1 sequence (P02550 whole entry partner): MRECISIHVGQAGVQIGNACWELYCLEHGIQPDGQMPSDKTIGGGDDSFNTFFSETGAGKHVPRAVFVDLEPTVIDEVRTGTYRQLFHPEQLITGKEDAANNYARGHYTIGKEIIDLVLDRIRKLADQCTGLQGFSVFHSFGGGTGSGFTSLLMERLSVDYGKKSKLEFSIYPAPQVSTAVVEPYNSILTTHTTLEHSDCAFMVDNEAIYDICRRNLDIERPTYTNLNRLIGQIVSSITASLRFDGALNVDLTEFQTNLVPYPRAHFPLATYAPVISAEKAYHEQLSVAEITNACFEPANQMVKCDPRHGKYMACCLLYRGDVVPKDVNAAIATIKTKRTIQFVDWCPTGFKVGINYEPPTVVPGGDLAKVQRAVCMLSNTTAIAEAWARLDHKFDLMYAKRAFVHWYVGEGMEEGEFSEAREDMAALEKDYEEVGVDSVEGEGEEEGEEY

SMILES	IC50 (HeLa WT-β-III cells; Homo sapiens, HeLa)	melting point	IC50 [2, 5]	IC50 (SK-OV-3-MDR-1-6/6 cells; Homo sapiens, SK-OV-3)	IC50 [3, 7]	EC50 (A-10 cells; [9])	IC50 [4, 10]	IC50 [4, 11]	Rr (β-III) (HeLa WT-β-III cells)	Rr (Pgp) (SK-OV-3-MDR-1-6/6 cells)	IC50 [2, 6]	IC50 [3, 8]	other results
CCOC(=O)c1[nH]c(C=NO)c(-c2ccc(OC)c(OC)c2OC)c1Br (mixture of isomers) [Example 10a, Cis/Trans-3-Bromo-4-(2,3,4-trimethoxyphenyl)-5-oximino-1H-pyrrole 2-carboxylic acid ethyl ester]									0.9	1.2			IC50 (HeLa WT-β-III cells): 4.1 ± 1 nM; % Inhibition of Tubulin Polymerization ([1]; compound at 2 μM): 75%; IC50 ([2]; Table 48, 48 hr exposure, read-out: SK-OV-3 Anti-Proliferative Activity, IC50): 5.3 ± 0.2 nM; IC50 ([2]; Table 49, parental line, 48 hr, read-out: SK-OV-3 IC50): 5.3 ± 0.2 nM; IC50 (SK-OV-3-MDR-1-6/6 cells): 6.6 ± 1.2 nM; IC50 ([3]; Table 48, 48 hr exposure, read-out: HeLa Anti-Proliferative Activity, IC50): 5 ± 0.3 nM; IC50 ([3]; Table 49, parental line, 48 hr, read-out: HeLa IC50): 5 ± 0.3 nM; EC50 (A-10 cells; Table 50, concentration causing approximately 50% loss of interphase microtubules): 9.8 nM; EC50 (A-10 cells; Table 52): 8.9 nM; IC50 ([4]; Table 48, 48 hr exposure, SRB assay): 2.7 ± 0.2 nM; IC50 ([4]; Table 52): 2.7 ± 0.2 nM
CCOC(=O)c1[nH]c(C=O)c(-c2ccc(OC)c(OC)c2OC)c1I [Example 4, 3-Iodo-4-(2,3,4-trimethoxyphenyl)-5-formyl-1H-pyrrole 2-carboxylic acid ethyl ester]	100 ± 2 nM	126 to 128 °C	66.9 ± 5.8 nM	87 ± 23.6 nM	39.9 ± 3.1 nM	129 nM	76 ± 0.6 nM	76 ± 0.6 nM	2.5	1.3	66.9 ± 5.8 nM	39.9 ± 3.1 nM	
CCCNC=C1NC(C(=O)OCC)C(Br)=C1c1ccc(OC)c(OC)c1OC (centres unmarked) [Example 17, 3-Bromo-5-(N-Propylaminomethylene)-4-(2,3,4-trimethoxyphenyl)-1H-pyrrole 2-carboxylic acid ethyl ester]	2010 nM	143 to 145 °C	3020 nM	3570 nM	2450 nM	4900 nM	2630 nM	2630 nM	0.8	1.2	3020 nM	2450 nM	
CCCNC=C1NC(C(=O)OCC)C(Cl)=C1c1ccc(OC)c(OC)c1OC (centres unmarked) [Example 18, 3-Chloro-5-(N-Propylaminomethylene)-4-(2,3,4-Trimethoxyphenyl)-1H-pyrrole 2-carboxylic acid ethyl ester]	11.2 ± 0.4 nM	166 to 168 °C	20.7 ± 1.9 nM	19 ± 1 nM	14.3 ± 0.8 nM	31 nM	12.6 ± 0.4 nM	12.6 ± 0.4 nM	0.8	0.9	20.7 ± 1.9 nM	14.3 ± 0.8 nM	
CCOC(=O)c1[nH]c(Br)c(-c2ccc(OC)c(OC)c2OC)c1Br [Example 22, 3,5-Dibromo-4-(2,3,4-trimethoxyphenyl)-1H-pyrrole-2-carboxylic acid ethyl ester]	15.7 ± 0.2 nM		15.2 ± 0.8 nM	10.6 ± 0.3 nM	12.9 ± 0.8 nM	34.5 nM	10.4 ± 0.5 nM		1.2	0.7	15.2 ± 0.8 nM	12.9 ± 0.8 nM	inhibition at 1 µM ([1]; compound at 1 μM): 53%

Second part, led by results:

IC50 (HeLa WT-β-III cells; Homo sapiens, HeLa)	melting point	IC50 [2, 5]	IC50 (SK-OV-3-MDR-1-6/6 cells; Homo sapiens, SK-OV-3)	IC50 [3, 7]	EC50 (A-10 cells; [9])	IC50 [4, 10]	IC50 [4, 11]	SMILES	Rr (β-III) (HeLa WT-β-III cells)	Rr (Pgp) (SK-OV-3-MDR-1-6/6 cells)	IC50 [2, 6]	IC50 [3, 8]	other results
106 ± 6.6 nM	193 to 195 °C	67.8 ± 16.2 nM	76 ± 22.9 nM	43.5 ± 1.7 nM	107 nM	64 ± 8.5 nM	64 ± 8.5 nM	CCOC(=O)c1[nH]c(C=O)c(-c2ccc(OC)c(OC)c2OC)c1Cl [Example 3, 3-Chloro-4-(2,3,4-trimethoxyphenyl)-5-formyl-1H-pyrrole 2-carboxylic acid ethyl ester]	2.4	1.1	67.8 ± 16.2 nM	43.5 ± 1.7 nM	
15.6 ± 0.4 nM	176 to 178 °C	23.1 ± 1.8 nM	22.4 ± 0.9 nM	19.5 ± 0.6 nM	36 nM	15.8 ± 0.9 nM	15.8 ± 0.9 nM	CCOC(=O)c1[nH]c(CN)c(-c2ccc(OC)c(OC)c2OC)c1Br [Example 13, 5-(Aminomethylene)-3-Bromo-4-(2,3,4-trimethoxyphenyl)-1H-pyrrole 2-carboxylic acid ethyl ester]	0.8	1.0	23.1 ± 1.8 nM	19.5 ± 0.6 nM	
12.3 ± 0.3 nM	143 to 145 °C	27.8 ± 1.3 nM	23.6 ± 1 nM	15 ± 0.5 nM	35 nM	13 ± 0.4 nM	13 ± 0.4 nM	CCOC(=O)c1[nH]c(CN)c(-c2ccc(OC)c(OC)c2OC)c1Cl [Example 14]	0.8	0.8	27.8 ± 1.3 nM	15 ± 0.5 nM	
137 nM	151 to 153 °C	211 nM	231 ± 118 nM	131 ± 8 nM	1060 nM	116 ± 4.3 nM		CCOC(=O)c1[nH]c(Cl)c(-c2ccc(OC)c(OC)c2OC)c1Cl [Example 23, 3,5-Dichloro-4-(2,3,4-Trimethoxyphenyl)-1H-pyrrole-2-carboxylic acid ethyl ester]	1.0	1.1	211 nM	131 ± 8 nM	
